Data published in patent publication US11857550B2, “Benzathine analogs” (University of Pittsburgh—Of the Commonwealth System of …, priority 2012, dated 2024).

Experiments:
human PBMC cells = assay: LPS-induced IL1β and TNFα cytokine release from PBMC cells (ELISA); format: cell-based; conditions: LPS-exposed human PBMC
Experimental: (§1) FIGS. 20A-20J is a table depicting benzathine compounds, and assay results. PBMC cells (0.6 ml at 1.5*10^6/ml) were treated with 2 ug/ml LPS for 16 hrs along with each compound at different concentrations. IL1β and TNFα cytokine release were monitored by ELISA to calculate the IC50. U937 monocyte (0.6 ml at 1.5*10^6/ml) were treated with each compound at different concentrations for 16 h. Cells were then stained with Trypan blue to differentiate dead cells, and calculate the LD50. Therapeutic index (TI)=LD50/IC50. Compounds marked in red are high value targets (low IC50, high LD50) and require further testing in vivo.
(§2) Briefly, compounds were added to human PBMC cells at different concentrations that were exposed to […] and cytokine secretion was monitored by ELISA to determine the IC50. Compounds were also added to U937 monocytes at different concentrations, and cells were stained with trypan blue to determine the LD50. […] Several functional studies were undertaken to assess anti-inflammatory effects focusing on BC-1215.

U937 monocyte = U937 monocyte Trypan blue cell death (LD50); format: cell-based, human; conditions: U937 monocytes, 16 h
Experimental: as §1, §2

MLE cells = assay: BrdU/7-AAD FACS cell cycle and apoptosis analysis; format: cell-based, murine
Experimental: FIGS. 27A-27G. […] A. PBMCs from 5 controls, AML, and ALL subjects were cultured in RPMI medium for 18 h. Cells were then collected, lysed, and assayed for protein immunoblotting. B-D. Human leukemia cells (U937, K562 and THP1 cells) were treated with BC-1258 at different concentrations for 16 h. Cells were collected and assayed for Aurora B, cyclin D2, cyclin D3 and FBXL2 immunoblotting. E-F. MLE cells were treated with BC-1258 at different concentrations for 16 h, cells were processed by BrdU uptake and 7-AAD staining followed by FACS cell cycle analysis (E), 2N, 4N, and 8N DNA histograms were quantitated and graphed in (F). G. Quantification of FACS analysis showing levels of apoptotic MLE cells after BC-1258 treatment at each time point.

U937 tumor implants = assay: U937 tumor xenograft in nude mice; format: in vivo; conditions: 30 ug/ml in the drinking water
Experimental: FIGS. 28A-281. […] A-E. Effect of BC-1258 and other compounds on growth of U937 tumor implants in nude mice, n=4 mice/group with drug concentration at 30 ug/ml in the drinking water. […] B. Tumor volume measurements over time (n=4 mice/group, *P<0.05 versus con). D. Tumor tissue from C were weighted and graphed (n=4 mice/group, *P<0.05 versus con). E. Tumors from three controls and three drug treated U937 implants in mice were collected at the end-point, and assayed for AuroraB, CaM and FBXL2 proteins by immunoblotting. F-I. Serum of each mice were collected at the end point and processed for creatinine, LDH, ALT and creatine kinase activity.

C57BL6 mice [1] = assay: DSS induced chronic colonic inflammation; format: in vivo; conditions: 30 μg/ml drinking water from day 7, 2% DSS cycles
Experimental: FIGS. 25A-25J. […] A. C57BL6 mice were fed with water ad lib containing 2% dextran sulfate sodium (DSS) for six days, then switch to water for up to three cycles. BC-1261 was administered into drinking water at 30 μg/ml, starting at day 7. Mice were euthanized at the end of the experiment and the length of the colon was measured and graphed in (B-C). Disease index was measured and graphed in (D). Serum cytokine levels were measured in (E-F). Colonic tissues cytokines and MPO activity were also analyzed (GJ). The data represent n=7 mice/group, *P<0.05 versus CON.

C57BL6 mice [2] = assay: Pseudomonas aeruginosa PA103 pneumonia model; format: in vivo; conditions: i.p., PA103 2.5*10^4 cfu/mouse i.t., 18 h
C57BL6 mice [3] = assay: TPA induced ear edema; format: in vivo; conditions: various doses to ears 30 min after TPA, 18 h
Experimental: FIGS. 15A-15C. […] FIG. 15A-15C. C57BL6 mice were deeply anesthetized with ketamine (80-100 mg/kg i.p.) and xylazine (10 mg/kg i.p.). 20 μl of ethanol solution of BC-1215 was applied to ears at 8, 40, 200 ug/ear 30 min after TPA administration (2 μg/ear). Comparisons included equal volumes of ethanol (vehicle control). 18 h after TPA administration, mice were euthanized; the thickness of the ear was measured using a micrometer (FIG. 15B). Ear punch biopsies were also taken immediately, weighed and graphed (FIG. 15C).
FIGS. 23A-23D. […] Different dose of BC-1261 was applied to ears of mice at various doses 30 min after TPA administration (2 μg/ear). A. Gross comparisons were made with equal volumes of ethanol as a vehicle control (CON). 18 h after TPA administration, mice were euthanized and the thickness of the ear was measured using a micrometer (B). Autopsy sample were also taken to measure MPO activity (C) and calculate ear edema (D). The data represent n=6 mice/group, *P<0.05 versus TPA.
Topical application of BC-1215 as an anti-inflammatory agent was tested in a model of 12-O-tetradecanoylphorbol-13-acetate (TPA) induced ear edema (Bralley et. al., J Inflamm (LOnd), 2008. 5:p.1). Briefly, 20 μl of an ethanol solution of BC-1215 was applied to ears of mice at 8, 40, and 200 ug/ear for 30 min after TPA administration (2 μg/ear). Comparisons included equal volumes of ethanol (vehicle control). 18 h after TPA administration, mice were euthanized; the thickness of the ear was measured using a micrometer. Ear punch biopsies were also taken immediately, weighed, and graphed.

C57BL6 mice [4] = assay: DSS induced (acute) colitis; format: in vivo; conditions: 150 μg daily i.p. or 30 μg/ml drinking water, 3.5% DSS
Experimental: FIGS. 17A-17D. BC-1215 reduces DSS induced colonic inflammation. FIGS. 17A-FIG. 17C. C57BL6 mice were fed with water containing 3.5% dextran sulfate sodium (DSS) for up to five days. Mice were treated with either vehicle or 100 ug of BC-1215 daily (via IP injection). Mice were then euthanized; the length of the colon was measured and graphed in (FIG. 17A). Colonic tissues were also analyzed for IL1β (FIG. 17B) and TNFα (FIG. 17C) by ELISA. (n=4 mice/group, *p<0.05 versus DSS) FIG. 17D, H&E staining was performed on colonic samples. (n=4 mice/group, *p<0.05 versus DSS)
FIGS. 24A-24E. […] A-D. C57BL6 mice were fed with water ad lib containing 3.5% dextran sulfate sodium (DSS) for up to five days. Mice were treated with either vehicle (control [CON]) or BC-1261 (150 μg) daily (via an i.p. injection), or BC-1261 were administered into drinking water at 30 μg/ml (po). Mice were then euthanized and the length of the colon was measured and graphed in (A-B). Colonic tissues were also analyzed for TNFα (C) and IL6(D). E. H&E staining was performed on colonic sections. The data represent n=4 mice/group, *P<0.05 versus DSS and **P<0.05 versus CON.
BC-1215 ameliorates DSS induced colitis. BC-1215 was also tested in a mouse colitis model to confirm its anti-inflammatory activity. Briefly, C57BL6 mice were fed with water containing 3.5% dextran sulfate sodium (DSS) for up to five days. Mice were treated with either vehicle or 200 ug of BC-1215 daily (via IP injection). Mice were then euthanized; the length of colons was measured. […] Colonic tissue cytokine levels were analyzed. […] Thus, the FBXO3 inhibitor BC-1215 suppresses inflammation in chemical induced colitis model in mice.

mice = assay: Cigarette smoke induced chronic lung inflammation; format: in vivo; conditions: 100 ug i.p. after 5 weeks smoke, 18 h
Experimental: FIGS. 22A-22C. […] Mice were exposed to cigarette smoke for 5 weeks before one does of i.p. injection of BC1261 (100 ug), 18 h later, mice were euthanized and lungs were lavaged with saline, harvested, and then homogenized. Lavage protein, cell counts and cytokine secretion were measured in (A-C). The data represent n=3 mice/group, *P<0.05 versus con.

SMILES | IC50 (cytokine secretion) (human PBMC cells) | LD50 (U937 monocyte) | further results
c1cn(-c2ccc(CNCCNCc3ccc(-n4ccnc4)cc3)cc2)cn1 [BC-1207] | high | low | –
Fc1ccc(CNCCNCc2ccc(-c3ccccn3)cc2)cc1 [BC-1241] | high | low | –
c1cnn(-c2ccc(CNCCNCc3ccc(-n4cccn4)cc3)cc2)c1 [BC-1250] | high | low | –
c1csc(-c2ccc(CNCCNCc3ccc(-c4nccs4)cc3)cc2)n1 [BC-1258] | – | – | apoptosis (MLE cells): apoptosis; cell cycle arrest (MLE cells; different concentrations, 16 h): Induces G2/M arrest; tumor growth (U937 tumor implants): suppresses tumor growth in xenograft
c1cnc(-c2ccc(CNCCNCc3ccc(-c4ncccn4)cc3)cc2)nc1 [BC-1261] | high | low | DSS induced chronic colonic inflammation (C57BL6 mice [1]): reduces DSS induced chronic colonic inflammation; P. aeruginosa induced lung inflammation (C57BL6 mice [2]): reduces P. aeruginosa induced lung inflammation; TPA induced ear edema (C57BL6 mice [3]): reduces TPA induced ear edema; DSS induced acute colonic inflammation (C57BL6 mice [4]): reduces DSS induced acute colonic inflammation; smoke induced chronic lung inflammation (mice): reduces smoke induced chronic lung inflammation
